Measured values reported in PubChem BioAssay (NCI).
Several values for one entry are separate records, joined by “and”; a condition that tells them apart may be missing. Equal entries are not always repeated.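 How tested: cells in 96-well plates exposed to compound for 48 hours at five concentrations. Here, GI50 denotes the concentration required for 50% inhibition of growth. TGI: concentration producing complete growth inhibition.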 Where a SMILES comes first, the peptide text is derived from it. [ ]: non-standard residue; d: D form. Ava = NCCCCC(=O)O; Mpa = O=C(O)CCS

Key:
Experiment in all cases: NCI tumour cell line growth inhibition, 48 h
MOLT-4 leukemia = system: MOLT-4 leukemia
OVCAR-3 ovarian = system: OVCAR-3 ovarian
LOX IMVI melanoma = system: LOX IMVI melanoma
NCI-H460 lung = system: NCI-H460 lung
UO-31 renal = system: UO-31 renal
MDA-N = system: MDA-N
M14 melanoma = system: M14 melanoma
TK-10 renal = system: TK-10 renal
MALME-3M melanoma = system: MALME-3M melanoma
RXF 393 renal = system: RXF 393 renal
RPMI-8226 leukemia = system: RPMI-8226 leukemia

SMILES	TGI (MOLT-4 leukemia)	TGI (OVCAR-3 ovarian)	TGI (LOX IMVI melanoma)	TGI (NCI-H460 lung) [µM]	TGI (UO-31 renal)	TGI (MDA-N) [µM]	TGI (M14 melanoma) [µM]	TGI (TK-10 renal) [µM]	TGI (MALME-3M melanoma) [µM]	TGI (RXF 393 renal)	TGI (RPMI-8226 leukemia) [µM]	GI50 (MOLT-4 leukemia) [nM]	GI50 (OVCAR-3 ovarian) [µM]	GI50 (UO-31 renal) [µM]	GI50 (RXF 393 renal) [µM]	GI50 (RPMI-8226 leukemia)
CS(=O)(=O)OCCN(CCOS(C)(=O)=O)c1ccc(C=Nc2ccc(-c3csc(Cc4ccccc4)n3)cc2)c(Cl)c1	> 87.9 µM	> 63.7 µM	> 57.3 µM	43.4	> 85.8 µM	> 76.3	> 62.7	> 100	> 72.8	98.6 µM	> 100	–	–	–	–	–
O=C(N/N=C\c1ccc(Cl)cc1)Nc1ccc2ccccc2c1	> 100 µM	> 100 µM	> 100 µM	> 100	> 100 µM	> 100	> 100	> 100	> 100	> 100 µM	> 100	–	–	–	–	–
CC(O)C(CO)NC(=O)C1CSSCC(NC(=O)C(N)Cc2ccccc2)C(=O)NC(Cc2ccccc2)C(=O)NC(Cc2c[nH]c3ccccc23)C(=O)NC(CCCCN)C(=O)NC(C(C)O)C(=O)N1 (centres undefined)	> 100 µM	> 100 µM	> 100 µM	> 100	> 100 µM	> 100	> 100	> 100	> 100	> 100 µM	> 100	–	–	–	–	–
COc1ccc(-c2cc(-c3ccc(C)cc3)n(C3OC(COC(C)=O)C(OC(C)=O)C(OC(C)=O)C3OC(C)=O)c(=S)c2C#N)cc1 (centres undefined)	> 100 µM	> 100 µM	> 100 µM	> 100	> 100 µM	> 100	> 100	> 100	> 100	> 100 µM	> 100	–	–	–	–	–
COc1ccc2[nH]c3ccc4cc[n+](CCN5CCC(C6CCN(CC[n+]7ccc8ccc9[nH]c%10ccc(OC)cc%10c9c8c7)CC6)CC5)cc4c3c2c1	50 µM and > 100 µM	50 µM and > 76.2 µM	50 µM and > 58.6 µM	–	50 µM and > 100 µM	50	> 50	27.2	50	50 µM and 10.8 µM	–	209	42.6	42.5	38.1	367 nM and 443 nM
CCCC(=O)OCC1OC(n2cc(F)c(=O)[nH]c2=O)CC1OC(=O)CCC (centres undefined)	> 10 µM	> 10 µM	> 10 µM	> 10	> 10 µM	> 10	> 10	> 10	> 10	> 10 µM	> 10	–	–	–	–	–
COc1cc2ncnc(NS(=O)(=O)c3cc4ccccc4s3)c2cc1OC	> 100 µM	> 100 µM	> 100 µM	> 100	> 100 µM	> 100	> 100	> 100	> 100	> 100 µM	> 100	–	–	–	–	–
COC(=O)C1(Cc2ccc3c(c2)CCC3)Cc2ccc3c(c2C1=O)CCC3 (centres undefined)	36.5 µM	52.8 µM	> 65.3 µM	> 63.9	> 100 µM	5.78	33.1	> 90.1	> 63.8	22.7 µM	52.7	–	–	–	–	–
COc1ccc2c(c1)/C(=C\c1c(Cl)nc3n1CCS3)C(=O)N2	> 100 µM	17.8 µM	> 100 µM	18.9	> 100 µM	6.54	> 100	28.1	> 100	9.91 µM	> 100	–	–	–	–	–
O=[N+]([O-])c1ccc2c(c1)nc1n2C(c2c(F)cccc2F)SC1 (centres undefined)	> 100 µM	> 100 µM	> 100 µM	> 100	> 100 µM	> 100	> 100	> 100	> 100	> 100 µM	> 100	–	–	–	–	–
CC1=NNC(=O)C1C1(C(=O)O)CC(c2c[nH]c3ccccc23)=NC(=S)N1 (centres undefined)	52.7 µM	65.8 µM	39.6 µM	50.1	> 100 µM	> 100	37.9	> 100	74.3	94.3 µM	84.5	–	–	–	–	–
CC(NC(=O)CCS)C(=O)NC(C)C(=O)NC(Cc1c[nH]c2ccccc12)C(=O)NC(Cc1c[nH]cn1)C(=O)NC(CO)C(=O)NC(Cc1c[nH]c2ccccc12)C(=O)NCCCCC(=O)NC(C)C(=O)NC(CCC(N)=O)C(=O)NC(CCCCN)C(=O)NC(C)C(=O)NC(CCCNC(=N)N)C(=O)NC(CCCCN)C(N)=O (centres undefined) ([Mpa]AAWHSW[Ava]AQKARK-NH2; configuration not given here)	> 100 µM	> 100 µM	> 100 µM	> 100	> 100 µM	> 100	> 100	> 100	36.9	> 100 µM	> 100	–	–	–	–	–
CN(C)N1C(=O)C(=O)N(c2cccc3ccccc23)C1=O	> 10 µM	> 10 µM	> 10 µM	> 10	> 10 µM	> 10	> 10	> 10	> 10	> 10 µM	> 10	–	–	–	–	–
CCO/N=C\c1ccc2oc(-c3ccccc3)cc(=O)c2c1	19.9 µM	0.913 µM	> 48.7 µM	4.19	5.83 µM	0.105	> 31.6	34	43.1	11.6 µM	9.42	–	–	–	–	–
COc1cc2c(cc1OC)C(CCN)=NCC2	43 µM	35.2 µM	36.7 µM	> 100	4.2 µM	30.5	32.8	22.8	33.1	30.4 µM	29.9	–	–	–	–	–
CCC1c2[nH]c3ccccc3c2C[C@H]2C(=O)NC(C)C(=O)N12 (some centres undefined)	> 100 µM	> 100 µM	> 100 µM	–	> 100 µM	> 100	> 100	> 100	> 100	> 100 µM	> 100	–	–	–	–	–
O=C(CCCc1cccc2[nH]c3c(c12)CN(Cc1ccccc1)CC3)c1ccc(F)cc1	> 100 µM	> 100 µM	> 100 µM	> 100	> 100 µM	> 100	> 100	> 100	> 100	> 100 µM	> 95.1	–	–	–	–	–
Cc1ccc(C(=O)Nc2ccc(S(=O)(=O)O)c3cc(S(=O)(=O)O)cc(S(=O)(=O)O)c23)cc1NC(=O)c1cccc(NC(=O)Nc2cccc(C(=O)Nc3cc(C(=O)Nc4ccc(S(=O)(=O)O)c5cc(S(=O)(=O)O)cc(S(=O)(=O)O)c45)ccc3C)c2)c1	> 100 µM	> 100 µM	> 100 µM	> 100	87.3 µM	> 100	> 100	> 89.7	> 100	> 100 µM	> 100	–	–	–	–	–

SMILES	TGI (MOLT-4 leukemia)	TGI (OVCAR-3 ovarian)	TGI (LOX IMVI melanoma)	TGI (NCI-H460 lung) [µM]	TGI (UO-31 renal)	TGI (MDA-N) [µM]	TGI (M14 melanoma) [µM]	TGI (TK-10 renal) [µM]	TGI (MALME-3M melanoma) [µM]	TGI (RXF 393 renal)	TGI (RPMI-8226 leukemia) [µM]	GI50 (MOLT-4 leukemia) [nM]	GI50 (OVCAR-3 ovarian) [µM]	GI50 (UO-31 renal) [µM]	GI50 (RXF 393 renal) [µM]	GI50 (RPMI-8226 leukemia)
O=C1CCCC2=C1CC1=C(CCCC1=O)N2c1ccc(Cl)cc1	> 100 µM	> 100 µM	> 100 µM	> 100	> 100 µM	> 100	> 100	> 100	> 100	> 100 µM	> 100	–	–	–	–	–
COC(=O)[C@@]12CSC[C@]1(C(=O)OC)N[C@@H](c1ccccc1O)C2	> 100 µM	> 100 µM	–	> 100	> 100 µM	> 100	> 100	> 100	> 100	> 100 µM	> 100	–	–	–	–	–
CC1OC(NCCNCCNC2OC(C)C(O)C(O)C2O)C(O)C(O)C1O (centres undefined)	> 100 µM	> 100 µM	> 100 µM	> 100	> 100 µM	> 100	> 100	> 100	> 100	> 100 µM	> 100	–	–	–	–	–
CC1=C(C)C(=O)OC(C(C)(O)C2(O)CC3OC34C3CC(O)C56OC5C=CC(=O)C6(C)C3CCC42C)C1 (centres undefined)	4.49 µM	6.23 µM	5.38 µM	4.23	2.62 µM	15.5	12.6	7.43	3.53	6.68 µM	5.34	–	–	–	–	–
CCOC(=O)NC(Nc1ccc(F)cc1F)(C(F)(F)F)C(F)(F)F	> 100 µM	> 100 µM	> 100 µM	> 100	> 100 µM	> 100	> 100	> 100	> 100	> 100 µM	> 100	–	–	–	–	–
Nc1cc(CO)cc(Nc2c3ccccc3nc3ccccc23)c1	> 100 µM	32.2 µM	31.5 µM	> 100	32.3 µM	35.1	31.3	30.1	31.8	31.4 µM	> 100	–	–	–	–	–
CCN(CC)Cc1cc(N=Nc2c(O)ccc3c(N=Nc4ccc(O)c(CN(CC)CC)c4)c(O)ccc23)ccc1O	12.1 µM	> 20.7 µM	3.37 µM	7.54	6.96 µM	18	> 38.5	18.8	21.5	> 23.1 µM	19	–	–	–	–	–
CC(=O)C1=C(C)N(c2ccccc2)C2(O)C3=C(C(=O)c4ccccc4C3=O)C(O)=CC12Cl (centres undefined)	> 100 µM	> 100 µM	> 100 µM	> 100	26.7 µM	6.88	> 100	33.1	4.91	25.6 µM	4.39	–	–	–	–	–
CC(C#N)(NO)C(C)(C#N)NO (centres undefined)	> 100 µM	> 100 µM	> 100 µM	> 100	> 100 µM	> 100	> 100	> 100	> 100	> 100 µM	> 100	–	–	–	–	–
Cc1ccc([N+](=O)[O-])cc1S(=O)(=O)Nc1ccc(C2=NN(S(=O)(=O)c3cc([N+](=O)[O-])ccc3C)C(c3cccs3)C2)cc1 (centres undefined)	89.3 µM	52.6 µM	> 100 µM	94.6	> 100 µM	> 100	> 100	> 100	> 100	> 100 µM	67.6	–	–	–	–	–
C/C(Cc1ccc2c(c1)OCO2)=N\N=c1\sc2ccccc2n1C	> 100 µM	> 100 µM	> 100 µM	–	> 100 µM	> 100	> 100	> 100	> 100	> 100 µM	> 100	–	–	–	–	–
CCOC(=O)/C(C(N)=O)=C(\O)C(=O)/C=C(\O)c1ccc(Cl)cc1	40.6 µM	66.4 µM	31 µM	31.5	33.4 µM	38.5	48.3	26	45.1	32.2 µM	44.8	–	–	–	–	–
COc1cc(/C=C2\C(=O)N(c3cccc(NC(C)=O)c3)C(c3ccccc3)S2(=O)=O)cc(OC)c1OC (centres undefined)	86.3 µM	> 100 µM	> 100 µM	> 100	> 100 µM	> 100	> 100	> 100	> 100	> 100 µM	> 100	–	–	–	–	–
COc1ccc(-c2c(C#N)c(N)[nH]c(=S)c2C#N)cc1	> 100 µM	> 100 µM	> 100 µM	> 100	> 100 µM	28.5	> 100	> 100	86	98.3 µM	74.2	–	–	–	–	–
O=C(O)c1ccc2c(O)c(O)ccc2c1	18 µM	34.5 µM	57 µM	–	41.4 µM	38.5	61.8	18.6	> 74.6	42.5 µM	40.2	–	–	–	–	–
COc1ccc(SCc2cc(OC)ccc2OC)cc1	> 91.2 µM	> 91.7 µM	> 100 µM	> 100	> 100 µM	32.7	> 100	> 100	> 100	> 100 µM	> 100	–	–	–	–	–
O=S1(=O)OCCOS(=O)(=O)C1(F)Cc1ccccc1	> 100 µM	> 100 µM	> 100 µM	> 100	> 100 µM	> 100	> 100	> 100	> 100	> 100 µM	> 100	–	–	–	–	–
